Test results reported in PMC7910394, “Design of PSMA ligands with modifications at the inhibitor part: an approach to reduce the salivary gland uptake of radiolabeled PSMA inhibitors?” (EJNMMI Radiopharmacy and Chemistry, 2021).
Where two headings read alike, the source gives them in different places.

Assays:
[1] = Lipophilicity (log D), shake-flask method; format: physicochemical; conditions: from log D values
Procedure: The log D values were determined, using the shake-flask method as previously described (Wurzer et al. [2020]). The radiolabeled tracer (0.5–1 MBq, 20 μL) was dissolved in 1 mL of a 1/1 mixture (v/v) of PBS (pH 7.4) and n-octanol in a reaction vial (n = 6). After vigorous mixing of the suspension for 3 min at r.t., the vial was centrifuged at 9000 rpm (ca. 7700×g) for 5 min at room temperature (Heraeus Biofuge 15, Thermo Fisher Scientific, Darmstadt, Germany) and 150 μL aliquots of both layers were measured in a ɣ-counter.

PSMA = molecular target: T1, PSMA (Homo sapiens, UniProt Q04609); experiment: Competitive binding assay (IC50) on LNCaP cells with ([125I]I-BA)KuE as radioligand; conditions: ([125I]I-BA)KuE 0.2 nM, HBSS (1% BSA), 4 °C, 1 h
T1 construct: host or cells: LNCaP human prostate cancer cells
Procedure: PSMA-positive LNCaP cells (300265; Cell Lines Service, Eppelheim, Germany) were cultivated in Dulbecco’s modified Eagle medium/Nutrition Mixture F-12 with GlutaMAX (1/1, DMEM-F12, Thermo Fisher Scientific, Darmstadt, Germany) supplemented with 10% fetal bovine serum (Merck KGaA, Darmstadt, Germany) and kept at 37 °C in a humidified 5% CO2 atmosphere. One day (24 ± 2 h) prior to all in vitro experiments, the cultivated LNCaP cells were harvested using a mixture of trypsin/ethylenediamine-tetraacetic acid (0.05%/0.02%) in PBS (Thermo Fisher Scientific, Darmstadt, Germany) and centrifuged at 1300 rpm (ca. 190×g) for 3 min at room temperature (Heraeus Megafuge 16, Thermo Fisher Scientific, Darmstadt, Germany). After centrifugation, the supernatant was disposed and the cell pellet was resuspended in culture medium. Cells were counted with a Neubauer hemocytometer (Paul Marienfeld GmbH & Co. KG, Lauda-Königshofen, Germany) and seeded in 24-well plates.
Detailed information on affinity and internalization experiments is provided in the supporting information. […] IC50 values of (^natI-BA)KuE were determined on the same day for monitoring assay performance and to identify abnormal deviations in uptake and/or affinity. […] Data were corrected for non-specific binding and normalized to the specific internalization observed for the radioiodinated reference compound (n = 3).
The culture medium was removed and the cells were washed with 500 µL of Hank’s balanced salt solution (HBSS) (Merck KGaA, Darmstadt, Germany), containing 1% bovine serum albumin (BSA) (Merck KGaA, Darmstadt, Germany). Afterwards, 200 µL of HBSS (1% BSA) were added to each well and equilibrated on ice (4 °C) for 15 min. […] Experiments were carried out in triplicates for each concentration. The final concentrations of unlabeled ligand ranged from 10^-11 - 10^-5 M and the final radioligand concentration was 0.2 nM in all binding assays. The cells were incubated for one hour at 4 °C. Incubation was terminated by removal of the incubation medium. The cells were washed with 250 µL of HBSS (1% BSA) and the wash medium was combined with the respective supernatant. This fraction represents the amount of free radioligand. The cells were lysed by addition of 250 µL of 1 M aqueous NaOH. The lysate of each well was transferred to the respective vial as well as 250 µL of 1 M NaOH used for rinsing the well. Quantification of the amount of free and bound activity was performed in a γ-counter. The corresponding IC50 values were calculated using the GraphPad PRISM7 software.

[2] = test system: LNCaP tumor xenograft-bearing CB17-SCID mice; format: in vivo, mouse
Procedure: All animal experiments were conducted in accordance with general animal welfare regulations in Germany (German animal protection act, as amended on 18.05.2018, Art. 141 G v. 29.3.2017 I 626, approval no. 55.2–1-54-2532-71-13) and the institutional guidelines for the care and use of animals. To establish tumor xenografts, LNCaP cells (approx. 10^7 cells) were suspended in 200 μL of a 1/1 mixture (v/v) of DMEM F-12 and Matrigel (BD Biosciences, Heidelberg, Germany) and inoculated subcutaneously onto the right shoulder of 6–8 weeks old CB17-SCID mice (Charles River Laboratories, Sulzfeld, Germany). Mice were used for experiments when tumor size reached 5–10 mm in diameter (3–6 weeks after inoculation).
(§1) Approximately 2–10 MBq (0.20 nmol) of the ^177Lu-labeled PSMA inhibitors were injected into the tail vein of LNCaP tumor xenograft-bearing male CB17-SCID mice (n = 3 to 5). They were sacrificed by CO2 asphyxiation and cervical dislocation either 1 h or 24 h post injection (p.i.) (n = 3 for [^177Lu]Lu-5, -6 & -7 (proinhibitor compounds I-III), n = 4 for [^177Lu]Lu-10 (alkyne), n = 5 for [^177Lu]Lu-3 (carbamate I) and n = 5 for [^177Lu]Lu-11 (tetrazole)). Selected organs were removed, weighed and organ activities measured in a γ-counter.
as §1, with “2 - 10” for “2–10”, “(alkyne) and” for “(alkyne),”

T1 sequence (Q04609 whole entry): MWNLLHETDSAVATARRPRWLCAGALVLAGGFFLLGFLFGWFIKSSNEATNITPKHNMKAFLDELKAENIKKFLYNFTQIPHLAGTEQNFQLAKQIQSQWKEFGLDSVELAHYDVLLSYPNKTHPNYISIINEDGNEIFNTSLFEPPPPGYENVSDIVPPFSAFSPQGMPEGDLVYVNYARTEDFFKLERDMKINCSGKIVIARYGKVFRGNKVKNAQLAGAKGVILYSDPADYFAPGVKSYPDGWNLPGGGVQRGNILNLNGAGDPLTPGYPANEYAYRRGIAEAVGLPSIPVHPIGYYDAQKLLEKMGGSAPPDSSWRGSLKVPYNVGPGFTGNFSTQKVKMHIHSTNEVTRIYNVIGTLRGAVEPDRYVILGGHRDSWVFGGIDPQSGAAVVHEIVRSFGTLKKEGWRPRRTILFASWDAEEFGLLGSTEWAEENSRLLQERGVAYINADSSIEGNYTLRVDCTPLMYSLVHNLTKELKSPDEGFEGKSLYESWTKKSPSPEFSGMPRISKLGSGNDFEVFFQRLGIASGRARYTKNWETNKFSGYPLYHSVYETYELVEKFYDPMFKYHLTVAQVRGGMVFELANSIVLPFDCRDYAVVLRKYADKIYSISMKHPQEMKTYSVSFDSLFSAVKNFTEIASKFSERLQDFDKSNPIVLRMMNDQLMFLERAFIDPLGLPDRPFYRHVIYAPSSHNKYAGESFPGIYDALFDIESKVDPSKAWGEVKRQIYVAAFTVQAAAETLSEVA

With CC(C)(C)[Si](F)(c1ccc(C(=O)NC[C@@H](NC(=O)CN2CCN(CC(=O)[O-])CCN(CC(=O)[O-])CCN(CC(=O)[O-])CC2)C(=O)N[C@H](CCCCNC(=O)CCC(=O)NCCC[C@@H](NC(=O)CC[C@H](NC(=O)N[C@@H](CCc2nnn[nH]2)C(=O)O)C(=O)O)C(=O)O)C(=O)O)cc1)C(C)(C)C.[Lu+3] [^natLu/[^177Lu]Lu-11] as the molecule, how does the “increase of lipophilicity compared to [177Lu]Lu-1” value [1] read?
The value was ~ 7.4 fold.

What about the IC50 (PSMA) of the same molecule?
Its IC50 is 16.4 ± 3.8 nM.

What about the “Biodistribution Adrenals” value ([2]; 1 h p.i.) of the same molecule?
The value was 0.61 ± 0.42 % ID/g.

And the “Biodistribution Blood” value ([2]; 1 h p.i.)?
Its value is 1.09 ± 0.30 % ID/g.

And the “Biodistribution Bone” value ([2]; 1 h p.i.)?
The value was 0.47 ± 0.44 % ID/g.

What about the “Biodistribution Heart” value ([2]; 1 h p.i.) of the same molecule?
Its value is 0.41 ± 0.04 % ID/g.

What about the “Biodistribution Intestine” value ([2]; 1 h p.i.) of the same molecule?
Its value is 0.67 ± 0.21 % ID/g.

And the “Biodistribution Kidneys” value ([2]; 1 h p.i.)?
Its value is 33.2 ± 3.8 % ID/g.

What about the “Biodistribution Liver” value ([2]; 1 h p.i.) of the same molecule?
Its value is 0.74 ± 0.17 % ID/g.

And the “Biodistribution Lung” value ([2]; 1 h p.i.)?
Its value is 1.23 ± 0.27 % ID/g.

And the “Biodistribution Muscle” value ([2]; 1 h p.i.)?
The value was 0.15 ± 0.03 % ID/g.

What about the “Biodistribution Pancreas” value ([2]; 1 h p.i.) of the same molecule?
Its value is 0.33 ± 0.11 % ID/g.

What about the “Biodistribution Parotid gland” value ([2]; 1 h p.i.) of the same molecule?
Its value is 0.56 ± 0.08 % ID/g.

And the “Biodistribution Spleen” value ([2]; 1 h p.i.)?
The value was 1.04 ± 0.15 % ID/g.

And the “Biodistribution Stomach” value ([2]; 1 h p.i.)?
The value was 1.55 ± 1.67 % ID/g.

What about the “Biodistribution Submandibular gland” value ([2]; 1 h p.i.) of the same molecule?
Its value is 0.40 ± 0.05 % ID/g.

And the “Biodistribution Tumor” value ([2]; 1 h p.i.)?
The value was 3.40 ± 0.63 % ID/g.

What about the “Ratio Tumor-to-blood” value ([2]; 1 h p.i.) of the same molecule?
The value was 3.46 ± 1.62.

What about the “Ratio Tumor-to-kidney” value ([2]; 1 h p.i.) of the same molecule?
The value was 0.10 ± 0.03.

What about the “Ratio Tumor-to-liver” value ([2]; 1 h p.i.) of the same molecule?
Its value is 5.00 ± 2.11.

What about the “Ratio Tumor-to-muscle” value ([2]; 1 h p.i.) of the same molecule?
Its value is 24.9 ± 10.2.

What about the “Ratio Tumor-to-parotid gland” value ([2]; 1 h p.i.) of the same molecule?
Its value is 6.20 ± 1.74.

And the “Ratio Tumor-to-submandibular gland” value ([2]; 1 h p.i.)?
Its value is 8.74 ± 2.52.

What about the “Biodistribution Adrenals” value ([2]; 24 h p.i.) of the same molecule?
The value was 0.17 ± 0.19 % ID/g.

And the “Biodistribution Bone” value ([2]; 24 h p.i.)?
Its value is 0.18 ± 0.04 % ID/g.

And the “Biodistribution Heart” value ([2]; 24 h p.i.)?
The value was 0.02 ± 0.00 % ID/g.

And the “Biodistribution Intestine” value ([2]; 24 h p.i.)?
The value was 0.52 ± 0.68 % ID/g.

What about the “Biodistribution Kidneys” value ([2]; 24 h p.i.) of the same molecule?
Its value is 3.23 ± 0.77 % ID/g.

And the “Biodistribution Liver” value ([2]; 24 h p.i.)?
Its value is 0.18 ± 0.04 % ID/g.

And the “Biodistribution Lung” value ([2]; 24 h p.i.)?
The value was 0.05 ± 0.02 % ID/g.

What about the “Biodistribution Muscle” value ([2]; 24 h p.i.) of the same molecule?
Its value is 0.02 ± 0.01 % ID/g.

What about the “Biodistribution Pancreas” value ([2]; 24 h p.i.) of the same molecule?
Its value is 0.02 ± 0.00 % ID/g.

And the “Biodistribution Parotid gland” value ([2]; 24 h p.i.)?
Its value is 0.06 ± 0.02 % ID/g.

What about the “Biodistribution Spleen” value ([2]; 24 h p.i.) of the same molecule?
The value was 0.11 ± 0.03 % ID/g.

What about the “Biodistribution Stomach” value ([2]; 24 h p.i.) of the same molecule?
The value was 0.12 ± 0.11 % ID/g.

What about the “Biodistribution Submandibular gland” value ([2]; 24 h p.i.) of the same molecule?
The value was 0.04 ± 0.01 % ID/g.

And the “Biodistribution Tumor” value ([2]; 24 h p.i.)?
The value was 0.68 ± 0.16 % ID/g.

What about the “Ratio Tumor-to-blood” value ([2]; 24 h p.i.) of the same molecule?
Its value is 227 ± 50.

And the “Ratio Tumor-to-kidney” value ([2]; 24 h p.i.)?
Its value is 0.22 ± 0.06.

And the “Ratio Tumor-to-liver” value ([2]; 24 h p.i.)?
Its value is 3.74 ± 0.50.

What about the “Ratio Tumor-to-muscle” value ([2]; 24 h p.i.) of the same molecule?
The value was 55.9 ± 24.3.

And the “Ratio Tumor-to-parotid gland” value ([2]; 24 h p.i.)?
Its value is 12.2 ± 1.7.

What about the “Ratio Tumor-to-submandibular gland” value ([2]; 24 h p.i.) of the same molecule?
Its value is 16.9 ± 2.2.

And the “factor by which tumor-to-submandibular gland and tumor-to-parotid gland ratios are lower than for [177Lu]Lu-1” value ([2]; 24 h p.i.)?
The value was 8.
